Data reported in US20240360458A1, “TARGETED AND SLOW-RELEASE DRUG CONJUGATE COMPOSITION” (Centre for Eye and Vision Research Limited, priority 2023, published 2024).

How the values were obtained:
[1] = tested on: human corneal epithelial cells (HCECs); experiment: Flow cytometry binding of FAM-labelled aptamers to HCECs; details: FAM-labelled free aptamer, room temperature, read-out: dissociation constant (Kd) of aptamer in HCECs
Experimental: Due to the large size of cornea tissue, it is difficult to do quantitative binding assays. Thus, the binding of FAM-labelled aptamer to human corneal epithelial cells (HCECs) was tested using flow cytometry and fluorescence microscopy. BSA and salmon DNA were added to the blocking buffer to reduce non-specific binding before the incubation with FAM-labelled aptamers.
(§1) The cells were then incubated with blocking buffer (1% BSA, 0.1 mg mL^−1 Salmon sperm DNA in PBS) for 30 min at room temperature. After washing with PBS under centrifugation, 3×10^5 cells were incubated with pre-heated Cornea-S1 or Cornea-S2 aptamers or aptamer liposomes at various concentrations in PBS for 30 min at room temperature. After incubation, the cells were rinsed three times with 500 μL of PBS and then resuspended in 200 μL of PBS. The fluorescence signal was analyzed with a NovoCyte Flow Cytometer (Agilent Technologies). The equilibrium dissociation constants (Kd) value of each aptamer or aptamer liposome was obtained by GraphPad Prism 9 according to […]

[2] = tested on: cell surface protein of HCECs; experiment: Flow cytometry of aptamer binding to intact vs trypsin-treated HCECs; design: species or system human
Experimental: To understand the type of target, the HCECs were treated with trypsin, which degraded surface proteins.
as §1

[3] = tested on: human corneal epithelial cells (HCECs); experiment: Fluorescence microscopy of FAM-labelled aptamer binding in HCECs; details: FAM-labelled DNA, 30 min incubation
Experimental: (§2) HCECs were seeded on glass bottom culture dishes at 10,000 cells/compartment for 24 h. To test the binding of the aptamer to cells, HCECs were incubated with FAM-labelled T30 DNA sequence (negative control), Cornea-S1, or Cornea-S2 aptamers for 30 min. […] HCECs cultured in the isosmotic medium were used as a control. After incubation, the cells were washed 2 times with ice-cold PBS and were then stained with 1 μg mL^−1 Hoechst 33342 in PBS for nucleus staining for 1 min at RT. Fluorescence images were captured at the mid-plane of cells (magnification: 400×) by Nikon Eclipse Ti Inverted Research Microscope. The excitation wavelengths of Hoechst, Rh-PE, and FAM were 361 nm, 560 nm, and 498 nm respectively.
Furthermore, the binding of FAM-labelled aptamers in HCECs was visualized under a fluorescence microscope.

[4] = tested on: HCECs in hyperosmolarity medium; experiment: Cellular uptake and retention of CsA liposomes in dry eye HCECs model; format: cell-based, human; details: DED model
Experimental: To construct a dry eye disease (DED) cell model, HPV-immortalized human corneal epithelial cells (HCECs) (passages 6-10) were maintained in DMEM/F12 medium supplemented with 1% FBS and 1% penicillin/streptomycin at 37° C., 95% humidity, and 5% CO2. The cell medium was changed every 2 days. To establish an in vitro DED model, sodium chloride was added to the culture medium to increase the osmolarity of the medium by 200 mOsM.
as §2, with “The excitation wavelengths of Hoechst, Rh-PE, and FAM were 361 nm, 560 nm, and 498 nm respectively.” left out
The CsA-loaded liposomes were tested for cellular uptake and retention in a dry eye HCECs model induced by a high osmolarity medium. […] Additionally, liposome retention in cells was assessed by pretreating the cells with liposomes for 4 hours, followed by a 20-hour incubation period in liposome-free medium.

[5] = tested on: unidentified trypsin-sensitive surface protein(s) of human corneal epithelial cells (HCECs) (Homo sapiens); experiment: flow
[6] = tested on: BAC-induced dry eye rabbit model; experiment: Tear break-up time (TBUT) in BAC-induced dry eye rabbits; format: in vivo, New Zealand White rabbits; details: after 4 weeks of 0.1% BAC installation
Experimental: (§3) A 4-week 0.1% BAC treatment could induce stable dry eye condition in rabbits and no severe corneal damage was observed. Thus, a 4-week 0.1% BAC installation followed by a 3-week topical treatment of Restasis® or liposomes was used in the present invention. Corneal fluorescein staining, tear breakup time and tear production were measured before and after BAC installation and weekly throughout the 3-week treatment period.
(§4) Ten male New Zealand White rabbits, weighing between 3 to 3.5 kg each, were procured from Charles River Laboratories. They were housed within the Centralized Animal Facility at the University of Waterloo, where they were subjected to a 12-hour cycle of alternating light and darkness. The temperature was maintained at 23° C.±2° C., with a relative humidity of 60%±10%. The entire experimental procedure was conducted by ethical guidelines and received approval from the Animal Care Committee under Application No. 44737. Upon a 2-week acclimation period, eight rabbits were chosen at random to induce stable dry eye disease. […]
Rabbits were sedated by the aforementioned procedure. TBUT was evaluated utilizing a handheld EasyTear® VIEW+ Tearscope with a grid pattern, in conjunction with the S4 OPTIK HR Elite Mega Digital Vision system. […] This measurement was repeated thrice to ensure accuracy, and an average value was calculated for analysis.

[7] = tested on: BAC-induced dry eye rabbit model; experiment: Tear production (Schirmer tear strips) in BAC-induced dry eye rabbits; format: in vivo, New Zealand White rabbits; details: after 4-week 0.1% BAC installation
Experimental: as §3, §4
The aqueous tear production was measured with Schirmer Tear Strips (SPORTS WORLD VISION). The strips were placed inside the margin of the nictitating membrane of the lower eyelid of the rabbit for 5 min and the wetting length of the strip was measured as an indication of tear production.

[8] = tested on: human corneal epithelial cells (HCECs); experiment: Flow cytometry binding affinity of aptamer CsA liposomes in HCECs; details: liposome vs free aptamer
Experimental: The binding affinity of each aptamer liposome in HCECs was measured by flow cytometry. The cells were incubated with liposomes at room temperature, instead of in a 37° C. incubator, to reduce the internalization of liposomes by endocytosis. […] This apparent Kd is much lower than that observed in the free aptamers, for example, Cornea-S1 being 300-fold lower, and this was attributed to the stronger polyvalent binding increasing the avidity of the aptamer-functionalized liposomes.
as §1

[9] = tested on: BAC-induced dry eye rabbit model; experiment: Corneal fluorescein staining in BAC-induced dry eye rabbits; format: in vivo, New Zealand White rabbits; details: 4-week 0.1% BAC, then topical treatment twice daily up to 3 weeks
Experimental: as §3
as §4, with “disease. This was achieved through the topical application of 0.1% benzalkonium chloride (BAC) at a dosage of 20 μL per installation. This protocol was repeated twice a day (at 10 a.m. and 5 p.m.) for the subsequent 4 weeks. The remaining two rabbits constituted the control group and received PBS through a similar administration schedule.” for “disease.”

[10] = 3'-FAM, whole-cell apparent Kd, PBS, room temperature, 30 min, trypsin treatment lowers binding

Cornea-S2: DNA aptamer from cornea tissue-SELEX, family 2: GACGACTTATGCTTGGGACCTGATCCGGACTACGGTGTCGTC (DNA, backbone not given here; further chemistry not fully specified)
Kd [1]: 174 nM
FAM signals in trypsin-treated cells compared with intact cells [2]: significantly lower FAM signals
FAM signals in HCECs under fluorescence microscope [3]: intensive FAM signals
extended retention of liposomes [4]: up to 24 hours

GACGACGGCAAGGGGAAAGTGGTCGTAATCACGACGGTCGTC [FAM-Cornea-S1]
Kd [5, 10]: 362 nM

GACGACGGCAAGGGGAAAGTGGTCGTAATCACGACGGTCGTCTTTTT [Cornea-S1-chol liposome]
Kd ([5]; 3'-cholesterol, inserted in CsA liposome (about 690 strands per liposome), polyvalent liposome on whole cells, PBS, room temperature): 1.2 nM

benzalkonium chloride [BAC]
reduction in TBUT compared to baseline [6]: 60-70%
decrease in tear production [7]: 25-35%

GACGACTTATGCTTGGGACCTGATCCGGACTACGGTGTCGTC [FAM-Cornea-S2]
Kd [5, 10]: 174 nM

GACGACTTATGCTTGGGACCTGATCCGGACTACGGTGTCGTCTTTTT [Cornea-S2-chol liposome]
Kd ([5]; 3'-cholesterol, inserted in CsA liposome (about 690 strands per liposome), polyvalent liposome on whole cells, p92 gives 15.1 nM): 15 nM

Cornea-S1: DNA aptamer from cornea tissue-SELEX, family 1: GACGACGGCAAGGGGAAAGTGGTCGTAATCACGACGGTCGTC (DNA, backbone not given here; further chemistry not fully specified)
Kd [1]: 362 nM
apparent Kd of liposome lower than that of the free aptamer [8]: 300 fold
FAM signals in trypsin-treated cells compared with intact cells [2]: significantly lower FAM signals
FAM signals in HCECs under fluorescence microscope ([3]; listed as Conrea-S1): intensive FAM signals
FAM signals in HCECs under fluorescence microscope ([3]; listed as Corena-S1): observably higher than Conrea-S2 and S2.2 aptamer
extended retention of liposomes [4]: up to 24 hours
corneal fluorescein staining / corneal integrity [9]: markedly diminished to residual staining or isolated dots
